Experimental data taken from PMC2920882 (BMC Cancer, 2010).
“Also recorded” adds a separate entry of the source. Numbered stars: 1 amine (or outer) side, 2 acyl side, 3 side chain; on linkers, the order of the positions; unused ones are H or OH. Bridge positions count the residues as written; N and C are the ends. Square brackets hold non-standard residues; d marks the D form. Peptide text beside a SMILES is read from it. I, II: the chains in the order shown. Gly(N-piperonyl) = O=C(O)CNCc1ccc2c(c1)OCO2; X1 = CC(CN(CC(=O)[*:2])[*:1])c1ccccc1; Nleu = CC(C)CNCC(=O)O; Nlys = NCCCCNCC(=O)O; Ahx = NCCCCCC(=O)O; Nme = COCCNCC(=O)O; βAla = NCCC(=O)O

Columns and labels:
[1] = tested on: MMTV-PyMT tumors; assay: H&E histology of MMTV-PyMT tumors; conditions: formalin-fixed tumors after 19 days treatment
[2] = tested on: MMTV-PyMT transgenic model of breast cancer; assay: MMTV-PyMT breast cancer therapy study: tumor volume, tumor weight, efficacy; conditions: for tumor volume vs control: MMTV-PyMT mice, 19 days from age 6 weeks, GU81 260 μg/day osmotic pump, doxorubicin 2 mg/kg once weekly, 2-way ANOVA; for total tumor weight vs control: at sacrifice (age 60 days), p ≤ 0.01 for combination, 1-way ANOVA
[3] = tested on: MMTV-PyMT tumors; assay: Tumor VEGF immunohistochemistry; conditions: percent VEGF positive area, vs control, p ≤ 0.05 for GU81 alone, t-test; 3 animals/group, 5 sections/animal
[4] = tested on: MMTV-PyMT tumors
[5] = tested on: MMTV-PyMT tumors; assay: Perilipin and adiponectin immunohistochemistry of MMTV-PyMT tumors (tumor fat content); conditions: for tumor fat content (residual adipose tissue): MMTV-PyMT tumors after 19 days treatment, H&E and adipocyte markers
[6] = tested on: MMTV-PyMT transgenic model of breast cancer; conditions: cited from earlier work
[7] = tested on: Met-1 cells; conditions: GU81 treatment, mRNA and protein
[8] = tested on: MMTV-PyMT tumors; conditions: cited from earlier work
Description: Macrophage infiltration is associated with poor prognosis in a number of different tumor types, including breast cancer. […] This increase in macrophage infiltration is puzzling ...

[9] = tested on: HUVEC; conditions: when compared to GU40C4
[10] = tested on: MMTV-PyMT tumors; assay: Endomucin immunohistochemistry (vessel number, vascular area, vessel size)
[11] = tested on: Met-1 cells; conditions: 2.5 μM GU81, 72 hours, serum-free DMEM, p < 0.05 vs SFM, 1-way ANOVA
Method: Tumor-conditioned media (TCM) was collected and RNA harvested using TRIzol (Invitrogen) according to the manufacturer's directions at 24, 48, and 72 hours post-treatment. The quality of RNA was evaluated using spectrophotometry. The cDNA used for subsequent PCR was made using iScript (Bio-Rad Laboratories). The expression of VEGF was analyzed by quantitative real-time PCR using assay on demand from Applied Biosystems (Mm00437308_m1). […] Quantitative real-time PCR was performed in a reaction volume of 20 μL of cDNA and each reaction was performed in triplicate. We used the comparative Ct method to compute relative expression values. TCM was diluted 1:5 prior to analysis for VEGF concentration using the Quantikine Mouse VEGF Immunoassay (R&D Systems).
Results are expressed as mean ± SEM.

[12] = tested on: MMTV-PyMT tumors; assay: F4/80 macrophage infiltration immunohistochemistry; conditions: percent F4/80 positive area, p ≤ 0.05 vs control, t-test; 3 animals/group, 5 sections/animal
[13] = target: T1, VEGFR2 (PAE-KDR cells) (Homo sapiens, UniProt P35968); assay: VEGFR2 autophosphorylation assay, PAE-KDR cells; assay type: cell-based
T1 construct: host or cells: PAE-KDR cells
T1 sequence (P35968 20-1356): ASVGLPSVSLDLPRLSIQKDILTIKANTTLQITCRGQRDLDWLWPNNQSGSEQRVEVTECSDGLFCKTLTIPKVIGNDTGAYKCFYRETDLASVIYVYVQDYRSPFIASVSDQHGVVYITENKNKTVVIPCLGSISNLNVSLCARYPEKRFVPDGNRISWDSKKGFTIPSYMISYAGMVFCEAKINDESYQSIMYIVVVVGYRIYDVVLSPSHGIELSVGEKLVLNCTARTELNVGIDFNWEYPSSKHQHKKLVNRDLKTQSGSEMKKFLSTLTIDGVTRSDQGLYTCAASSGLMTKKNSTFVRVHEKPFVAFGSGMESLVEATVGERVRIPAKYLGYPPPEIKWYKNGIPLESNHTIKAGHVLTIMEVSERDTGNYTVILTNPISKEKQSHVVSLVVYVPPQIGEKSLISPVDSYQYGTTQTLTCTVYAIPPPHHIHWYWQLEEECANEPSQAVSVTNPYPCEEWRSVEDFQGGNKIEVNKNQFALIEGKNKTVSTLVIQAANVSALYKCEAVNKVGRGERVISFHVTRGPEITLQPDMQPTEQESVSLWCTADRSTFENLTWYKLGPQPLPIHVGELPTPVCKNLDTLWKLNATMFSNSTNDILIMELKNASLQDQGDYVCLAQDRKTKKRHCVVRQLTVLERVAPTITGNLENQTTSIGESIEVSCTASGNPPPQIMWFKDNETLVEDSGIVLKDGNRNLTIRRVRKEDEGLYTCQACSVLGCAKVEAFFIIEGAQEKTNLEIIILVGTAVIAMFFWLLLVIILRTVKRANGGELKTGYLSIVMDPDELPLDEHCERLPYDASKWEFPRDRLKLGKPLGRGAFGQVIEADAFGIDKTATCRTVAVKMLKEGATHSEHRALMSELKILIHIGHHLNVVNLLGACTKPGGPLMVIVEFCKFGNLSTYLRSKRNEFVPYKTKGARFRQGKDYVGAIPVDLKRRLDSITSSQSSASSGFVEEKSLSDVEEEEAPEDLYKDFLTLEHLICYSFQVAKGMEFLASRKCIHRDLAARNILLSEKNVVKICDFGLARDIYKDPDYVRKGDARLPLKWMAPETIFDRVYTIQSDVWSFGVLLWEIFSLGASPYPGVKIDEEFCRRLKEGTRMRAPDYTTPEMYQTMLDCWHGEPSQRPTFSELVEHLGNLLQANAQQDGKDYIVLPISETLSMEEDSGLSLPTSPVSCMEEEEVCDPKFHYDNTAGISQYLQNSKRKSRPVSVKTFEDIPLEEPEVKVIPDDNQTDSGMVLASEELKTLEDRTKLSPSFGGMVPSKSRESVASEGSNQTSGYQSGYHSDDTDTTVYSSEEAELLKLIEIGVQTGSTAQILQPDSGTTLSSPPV
Method: Experiments were conducted using PAE-KDR (Sibtech Inc., Brookfield, CT) and HUVEC (Sciencecell, Carlsbad, CA) cells. […] Cells were harvested with lysis buffer, and lysates were separated by SDS-PAGE and transferred to PVDF membranes. Membranes were probed with anti phospho-VEGF receptor 2 (Tyr1175, 19A10) or total anti-VEGFR2 primary antibodies (Cell Signaling Technology, Danvers, MA) and subsequently developed with appropriate HRP-conjugated secondary antibody (BioRad Laboratories, Hercules, CA) followed by enhanced chemiluminescent detection (Pierce).

[14] = tested on: 4T1 syngenic breast cancer model; conditions: 4T1 syngeneic model; cited from earlier work
[15] = target: T2, VEGFR2 (Homo sapiens, UniProt P35968); assay: Fluorescence-based ELISA, VEGFR2 binding; conditions: vs GU40C4 (ref 12)
T2 construct: purchased R&D Systems
T2 sequence (P35968 20-1356): as above
Method: Wells were washed with 5 × 200 μL of PBS and fluorescence was measured at 520 nm using a plate reader (Fluostar Optima, BMG Laboratories, Durham, NC).

In the case of `COc1cccc2c1C(=O)c1c(O)c3c(c(O)c1C2=O)C[C@@](O)(C(=O)CO)C[C@@H]3O[C@H]1C[C@H](N)[C@H](O)[C@H](C)O1` [doxorubicin, reference compound], the “tumor histology / progression / invasion” value [1] is reported as “no effect on tumor weight, histology, tumor fat content, or tumor growth index; also recorded: displayed areas of invasive carcinoma; although the invasive component of the tumor was reduced when compared to control and GU81-treated animals; also recorded: clearly invasive adenocarcinomas”, the “tumor volume vs control” value [2] is reported as “significantly reduced tumor volume compared to control treated animals” and the “total tumor weight vs control” value [2] is reported as “no effect on tumor weight, histology, tumor fat content, or tumor growth index”. The “tumor VEGF level” value [3] was “neither treatment with doxorubicin alone or in combination with GU81 had significant effects on VEGF expression”, the “cytostatic / cytocidal character of the therapy” value ([4]; from proliferation, apoptosis and growth index) was “cytostatic” and the “tumor growth index vs control” value ([4]; phospho-histone-3 / cleaved caspase-3 positive cells per 200× field, vs control, p ≤ 0.05 for combination, 1-way ANOVA) was “no effect on tumor weight, histology, tumor fat content, or tumor growth index”. For the same compound, the “phospho-histone-3 positive cells (proliferation) vs control” value ([4]; vs control, p ≤ 0.01 (doxorubicin, combination), 1-way ANOVA, 3 animals/group, 5 sections/animal) was “fewer phospho-histone-3 positive cells when compared to tumors from control treated animals”, the “cleaved (active) caspase-3 positive cells (apoptosis) vs control” value ([4]; vs control, p ≤ 0.05 (doxorubicin), 1-way ANOVA, 3 animals/group, 5 sections/animal) was “significantly fewer active caspase-3 positive cells when compared to tumors from control-treated animals” and the “adiponectin staining vs control” value ([5]; Cy3 positive area, vs control, p≤0.05, t-test) was “significantly increased”. The “tumor fat content (residual adipose tissue)” value [5] was “no effect on tumor weight, histology, tumor fat content, or tumor growth index”.

For `COCCN(CC(=O)N(CC(=O)N(CC(=O)N(CCCCN)CC(=O)N(CC(=O)N(CCCCN)CC(=O)N(CCCCN)CC(=O)NCCCCCC(=O)NCCC(=O)N[C@@H](CCCCNC(=O)CN(CCCCN)C(=O)CN(CCCCN)C(=O)CN(CC(C)C)C(=O)CN(CCCCN)C(=O)CN(Cc1ccc2c(c1)OCO2)C(=O)CN(CC(C)c1ccccc1)C(=O)CN(CCOC)C(=O)CN(CC(C)C)C(=O)CNCCCCN)C(N)=O)CC(C)C)Cc1ccc2c(c1)OCO2)CC(C)c1ccccc1)C(=O)CN(CC(C)C)C(=O)CNCCCCN` (stereo partly drawn) [GU81] (I: H-[Nlys][Nleu][Nme][X1][Gly(N-piperonyl)][Nlys][Nleu][Nlys][Nlys][Ahx][βAla]K-NH2 / II: H-[Nlys][Nleu][Nme][X1][Gly(N-piperonyl)][Nlys][Nleu][Nlys][Nlys]; amide I:12-II:C), the “tumor histology / progression / invasion” value [1] is given as “no effect on tumor weight, histology, tumor fat content, or tumor growth index; also recorded: did not alter this histology”, the “tumor histology / progression / invasion” value ([1]; listed as GUI81) is given as “clearly invasive adenocarcinomas” and the “in vivo efficacy as a single agent, MMTV-PyMT model” value [6] is given as “does not demonstrate in vivo efficacy as a single agent in the MMTV-PyMT model of breast cancer”. The “therapeutic efficacy in MMTV-PyMT model” value ([2]; GU81 260 μg/day alone or with doxorubicin 2 mg/kg once weekly, 19 days) was “little therapeutic efficacy when used alone; also recorded: not effective as a single agent in the MMTV-PyMT model of breast cancer”, the “tumor volume vs control” value [2] was “did not have a significant effect on either tumor volume or tumor weight” and the “total tumor weight vs control” value [2] was “no effect on tumor weight, histology, tumor fat content, or tumor growth index; also recorded: did not have a significant effect on either tumor volume or tumor weight”. For the same compound, the “VEGF expression in Met-1 cells (discussion)” value [7] was “increased VEGF expression following treatment with GU81”, the “tumor VEGF level” value [3] was “increased tumor-VEGF levels and macrophage infiltration; also recorded: significantly increased levels of VEGF compared to tumors from control-treated mice; also recorded: increased tumor VEGF expression in this model” and the “macrophage infiltration, single agent” value [8] was “increases macrophage infiltration as a single-agent”. For the same compound, the “expected inhibition of endothelial cell proliferation” value [9] was “more potent inhibitor of endothelial cell proliferation when compared to GU40C4”, the total vessel number ([10]; endomucin, vessels per 200× field, 3 animals/group, 5 sections/animal) was “no effect on total vessel number; also recorded: do not see a decrease in vessel number” and the “total vascular area, GU81 alone” value ([10]; percent endomucin positive area per 200× field, vs control, p < 0.001, t-test) was “able to significantly to reduce total vascular area as a single agent; also recorded: decreased total vascular area; also recorded: reduces total vascular area and vessel size; also recorded: decrease in total vascular area and vessel size”. The vessel size ([10]; percent fluorescent area divided by total vessel number, vs control, t-test) was “reduces total vascular area and vessel size; also recorded: decrease in total vascular area and vessel size”, the “VEGF mRNA level in Met-1 cells” value [11] was “significantly increased after 72 hours of GU81 treatment; also recorded: significant increase in VEGF gene transcription following 72 hrs of GU81 treatment” and the “tumor fat content (residual adipose tissue)” value [5] was “no effect on tumor weight, histology, tumor fat content, or tumor growth index”. The “macrophage infiltration vs control” value [12] was “increased tumor-VEGF levels and macrophage infiltration; also recorded: significantly increased following treatment with GU81; also recorded: induces macrophage infiltration in vivo”, the “block of VEGF-induced VEGFR2 phosphorylation” value ([13]; PAE-KDR cells, increasing concentrations of GU81 15 min, VEGF 1.3 nM 7 min, 37°C, Western blot) was “effectively blocks VEGF-induced VEGFR2 phosphorylation of PAE-KDR cells in a dose-dependent manner” and the in vitro efficacy ([13]; abstract: compared to GU40C4, discussion: in vitro biological efficacy) was “increased in vitro efficacy compared to GU40C4; also recorded: potent in vitro biological efficacy”. For the same compound, the “tumor size, 4T1 model, single agent” value [14] was “effectively reduces tumor size and MVD” and the “improvement of KD over the original GU40C4” value [15] was 3 -fold.
